The target in one series is T1, androgen receptor (AR) (Homo sapiens, UniProt P10275).
T1 construct: transfecting C2C12 cells with a plasmid containing full-length AR; expressed in transfected cells; host or cells: mouse myoblastic C2C12 cells (ATCC CRL-1772), transiently transfected with AR-FL in pcDNA 3.1(+)
T1 sequence (P10275 1-920): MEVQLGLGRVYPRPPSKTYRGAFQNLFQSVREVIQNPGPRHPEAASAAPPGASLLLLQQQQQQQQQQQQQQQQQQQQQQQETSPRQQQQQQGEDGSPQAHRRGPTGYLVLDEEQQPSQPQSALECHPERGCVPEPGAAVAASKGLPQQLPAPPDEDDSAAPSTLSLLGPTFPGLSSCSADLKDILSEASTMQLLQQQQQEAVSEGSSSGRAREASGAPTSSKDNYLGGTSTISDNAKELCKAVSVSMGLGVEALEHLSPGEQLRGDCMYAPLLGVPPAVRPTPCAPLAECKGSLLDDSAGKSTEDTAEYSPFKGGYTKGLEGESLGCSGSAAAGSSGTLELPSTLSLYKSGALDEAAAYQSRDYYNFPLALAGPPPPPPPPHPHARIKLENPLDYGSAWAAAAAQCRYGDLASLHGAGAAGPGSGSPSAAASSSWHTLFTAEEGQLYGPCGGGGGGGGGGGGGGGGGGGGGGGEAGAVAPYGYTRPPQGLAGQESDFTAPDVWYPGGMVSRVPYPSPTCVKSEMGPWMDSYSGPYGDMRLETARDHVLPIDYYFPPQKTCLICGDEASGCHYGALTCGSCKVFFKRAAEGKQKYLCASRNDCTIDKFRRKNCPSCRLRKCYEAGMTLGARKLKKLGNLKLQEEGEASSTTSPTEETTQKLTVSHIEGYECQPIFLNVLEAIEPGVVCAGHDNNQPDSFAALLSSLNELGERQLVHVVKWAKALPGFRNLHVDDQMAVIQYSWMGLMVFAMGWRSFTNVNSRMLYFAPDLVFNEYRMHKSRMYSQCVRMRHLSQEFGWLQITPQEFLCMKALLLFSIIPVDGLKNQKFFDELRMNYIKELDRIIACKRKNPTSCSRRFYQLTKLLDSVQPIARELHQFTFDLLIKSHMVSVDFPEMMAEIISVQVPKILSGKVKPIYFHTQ
Kind of series: Test 1: androgen receptor transcriptional activation (2XIDR17-luciferase) assay in transfected C2C12 cells. To be noted: for Emax: C2C12, C2C12 cells, percentage activity relative to 1 μM DHT, read-out: Biological activity (C2C12 cell) Emax % (converted); for EC50: mouse myoblastic C2C12 cells transfected with full-length AR and 2XIDR17-luciferase, read-out: Biological activity (C2C12 cell) EC50; for % Biological activity (C2C12 cell) 100 nM / % Biological activity (C2C12 cell) 5 μM: C2C12 cells, relative to 1 μM DHT; for % Biological activity (C2C12 cell) 100 nM: compound at 100 nM; for % Biological activity (C2C12 cell) 5 μM: compound at 5 μM. The class given is cell-based. Here is the method: A suitable assay to determine the ability of a ligand to transcriptionally activate androgen receptor (AR) is carried out using mouse myoblastic C2C12 cells. The assay involves transfecting C2C12 cells with a plasmid containing full-length AR along with an AR response element linked to luciferase (2XIDR17). The luminescence read-out at the end of the assay is measured using Victor 3 and is a direct measure of the transcriptional activity. The assay has been validated using the reference compound, BMS-564929, for which EC50 values have been reported in a similar set-up.
C2C12 cells were obtained from ATCC (Cat #CRL-1772) and maintained in DMEM modified to contain 4 mM L-glutamine, 4.5 g/L glucose, 1 mM sodium pyruvate and 1.5 g/L sodium bicarbonate and 10% FBS.
AR-FL in pcDNA 3.1(+) and 2XIDR17 in pGL4.26 plasmids prepared using Genelute plasmid miniprep kit from Sigma Cat #PLED35 Steadyglow Luciferase assay system Promega Cat #E2550
• C2C12 cells were seeded in a 96-well plate in DMEM (Dulbecco's Modified Eagle Medium) without phenol red and containing 10% CS-FBS (Charcoal-stripped Fetal Bovine Serum) at 8000 cells/well. • The next day, cells were transfected with an equimolar ratio of (Androgen Receptor-Full length) AR-FL and 2XIDR17-Luciferase at a total plasmid concentration of 200 ng/well using Lipofectamine 2000 following manufacturer's protocol. • For the transfection, 83 ng of AR-FL and 117 ng of 2XIDR17-Luciferase were in 12.5 μl of OptiMEM—Mix A. 0.4 μl of Lipofectamine 2000 was added to 12.5 μl of OptiMEM and incubated for 5 min at room temperature—Mix B. The two mixes A and B were mixed and incubated at room temperature for an additional fifteen minutes. An additional 50 μl of OptiMEM was added, gently mixed and this mixture was added to the cells in the 96-well plate. The above quantities are requirements per well of a 96-well plate. Master mixes were made for the entire plate, with proportional quantity of reagents being used. • 5 h after transfection, compounds were added to the wells in DMEM without phenol red and containing 10% CS-FBS, maintaining a final DMSO concentration of 0.5%. A typical dose response curve starts at 10 μM and includes a 7-point, log dilution, done in triplicates. • After overnight incubation with the compounds, 100 ul of working solution of Steadyglow reagent was added to the wells. • The plates were placed in a shaker for 15 min at the end of which the lysate containing luciferase was transferred to a white flat-bottom plate and read under a luminescence setting in Victor. • Background subtracted counts (Luminescence from DMSO control wells is considered the background) are used to calculate percentage activity, expressed relative to activity with 1 μM (Dihydrotestosterone) DHT (at least two sets of triplicates for 1 μM DHT are included per plate).
The EC50 curves for the compounds for 8 compound concentrations were fitted by the respective function using non-linear least-squares regression in Graphpad Prism 4.0 (Graphpad Software, San Diego, Calif., USA).

The term Emax denotes the greatest response seen or fitted, relative to the assay's reference. A word on the EC50: it is the concentration giving half of the maximal effect. The term melting point denotes the temperature, or range, at which the solid turns liquid. `Cc1c(N2C(=O)N(C)C3(CCC(F)(F)C3)C2=O)ccc(C#N)c1Cl` (stereo not shown) [Example 6.3, 2-chloro-4-(7,7-difluoro-1-methyl-2,4-dioxo-1,3-diazaspiro[4.4]nonan-3-yl)-3-methylbenzonitrile]: the melting point is 184 °C. Further, at androgen receptor (AR), the Emax is 63% and the EC50 stood at 14.9 nM.

`COCCN1C(=O)N(c2ccc(C#N)c(Cl)c2C)C(=O)C12CCCC2` [Example 3.1, 2-chloro-4-(1-(2-methoxyethyl)-2,4-dioxo-1,3-diazaspiro[4.4]nonan-3-yl)-3-methylbenzonitrile] came in with a melting point of 115 °C. Further, at androgen receptor (AR), the Emax is 96% and the EC50 came out at 105 nM.

`Cc1c(N2C(=O)N(CCOCCF)C3(CCCC3)C2=O)ccc(C#N)c1Cl` [Example 9.2, 2-chloro-4-(1-(2-(2-fluoroethoxy)ethyl)-2,4-dioxo-1,3-diazaspiro[4.4]nonan-3-yl)-3-methylbenzonitrile] had a melting point of 112 °C. At androgen receptor (AR), the Emax was 83% and the EC50 turned out to be 17.8 ± 6.6 nM.

Take `Cc1c(N2C(=O)N(C)C3(CCCC3)C2=O)ccc(C#N)c1Cl` [Example 3.0, 2-chloro-3-methyl-4-(1-methyl-2,4-dioxo-1,3-diazaspiro[4.4]nonan-3-yl)benzonitrile]: the melting point turned out to be 154 °C. Moreover, on androgen receptor (AR), the Emax is 100% and the EC50 turned out to be 0.41 nM.

Regarding `Cc1c(N2C(=N)C3(CCCC3)N(C)C2=O)ccc(C#N)c1Cl` [Example 7.0, 2-chloro-4-(4-imino-1-methyl-2-oxo-1,3-diazaspiro[4.4]nonan-3-yl)-3-methylbenzonitrile], the melting point is 199 °C. For the same compound, on androgen receptor (AR), the Emax was 53% and the EC50 was determined as 103 nM.

`Cc1c(N2C(=O)N(CC(C)C)C3(CCCC3)C2=O)ccc(C#N)c1Cl` [Example 9.5, 2-chloro-4-(1-isobutyl-2,4-dioxo-1,3-diazaspiro[4.4]nonan-3-yl)-3-methylbenzonitrile] registered a melting point of 115 °C. In addition, at androgen receptor (AR), the “% Biological activity (C2C12 cell) 100 nM” value came to 11% and the “% Biological activity (C2C12 cell) 5 μM” value was determined as 74%.

Compound `Cc1c(N2C(=O)N(Cc3ccc(C#N)cc3)C3(CCCC3)C2=O)ccc(C#N)c1Cl` [Example 8.0, 2-chloro-4-(1-(4-cyanobenzyl)-2,4-dioxo-1,3-diazaspiro[4.4]nonan-3-yl)-3-methylbenzonitrile] came in with a melting point of 195 °C. For the same compound, at androgen receptor (AR), the Emax was 106% and the EC50 was found to be 0.48 nM.

In the case of `Cc1c(N2C(=O)N(C)C3(CCC(=O)C3)C2=O)ccc(C#N)c1Cl` (stereo not shown) [Example 6.2, 2-chloro-3-methyl-4-(1-methyl-2,4,7-trioxo-1,3-diazaspiro[4.4]nonan-3-yl)benzonitrile], the melting point worked out at 219 °C. Also, at androgen receptor (AR), the “% Biological activity (C2C12 cell) 100 nM” value worked out at 9% and the “% Biological activity (C2C12 cell) 5 μM” value is 29%.

`Cc1c(N2C(=O)N(C)C3(CCCC3O)C2O)ccc(C#N)c1Cl` (mixture of isomers) [Example 1.2, 2-chloro-4-(4,6-dihydroxy-1-methyl-2-oxo-1,3-diazaspiro[4.4]nonan-3-yl)-3-methylbenzonitrile] displayed a melting point of 179 °C. Besides, at androgen receptor (AR), the Emax was 79% and the EC50 was found to be 930 nM.

The compound `Cc1c(N2C(=O)N(C)C3(CCCC3CO)C2=O)ccc(C#N)c1Cl` (stereo not shown) [Example 1.6, 2-chloro-4-(6-(hydroxymethyl)-1-methyl-2,4-dioxo-1,3-diazaspiro[4.4]nonan-3-yl)-3-methylbenzonitrile] came in with a melting point of 157 °C. Besides, at androgen receptor (AR), the “% Biological activity (C2C12 cell) 100 nM” value turned out to be 28% and the “% Biological activity (C2C12 cell) 5 μM” value is 75%.

In the case of `Cc1ccc(CN2C(=O)N(c3ccc(C#N)c(Cl)c3C)C(=O)C23CCCC3)cn1` [Example 8.6, 2-chloro-3-methyl-4-(1-((6-methylpyridin-3-yl)methyl)-2,4-dioxo-1,3-diazaspiro[4.4]nonan-3-yl)benzonitrile], the melting point turned out to be 177 °C. In addition, the EC50 on androgen receptor (AR) was 11 nM.

The compound `Cc1c(N2C(=O)N(Cc3ccncc3)C3(CCCC3)C2=O)ccc(C#N)c1Cl` [Example 8.5, 2-chloro-4-(2,4-dioxo-1-(pyridin-4-ylmethyl)-1,3-diazaspiro[4.4]nonan-3-yl)-3-methylbenzonitrile] displayed a melting point of 76 °C. For the same compound, the EC50 on androgen receptor (AR) is 30.7 nM.

In turn, `Cc1c(N2C(=O)N(CCO)C3(CCCC3)C2=O)ccc(C#N)c1Cl` [Example 9.7, 2-chloro-4-(1-(2-hydroxyethyl)-2,4-dioxo-1,3-diazaspiro[4.4]nonan-3-yl)-3-methylbenzonitrile] registered a melting point of 98 °C. Further, at androgen receptor (AR), the Emax is 76% and the EC50 was 199 nM.

On to `Cc1c(N2C(=O)N(C)C3(CCC3)C2=O)ccc(C#N)c1Cl` [Example 12.0, 2-chloro-3-methyl-4-(5-methyl-6,8-dioxo-5,7-diazaspiro[3.4]octan-7-yl)benzonitrile], for which the melting point was determined as 133 °C. Besides, on androgen receptor (AR), the “% Biological activity (C2C12 cell) 100 nM” value is reported as 67% and the “% Biological activity (C2C12 cell) 5 μM” value was 70%.

Regarding `Cc1c(N2C(=O)N(C)C3(CCCC3=O)C2=O)ccc(C#N)c1Cl` (racemic) [Example 1.1, 2-chloro-3-methyl-4-(1-methyl-2,4,6-trioxo-1,3-diazaspiro[4.4]nonan-3-yl)benzonitrile], the melting point is 161 °C. Besides, at androgen receptor (AR), the Emax was 60% and the EC50 turned out to be 847 nM.

Turning to `Cc1c(N2C(=O)N(Cc3ccccn3)C3(CCCC3)C2=O)ccc(C#N)c1Cl` [Example 8.4, 2-chloro-4-(2,4-dioxo-1-(pyridin-2-ylmethyl)-1,3-diazaspiro[4.4]nonan-3-yl)-3-methylbenzonitrile], the melting point came out at 179 °C. Further, at androgen receptor (AR), the Emax was 96% and the EC50 worked out at 48 nM.

`Cc1noc(C)c1CN1C(=O)N(c2ccc(C#N)c(Cl)c2C)C(=O)C12CCCC2` [Example 8.3, 2-chloro-4-(1-((3,5-dimethylisoxazol-4-yl)methyl)-2,4-dioxo-1,3-diazaspiro[4.4]nonan-3-yl)-3-methylbenzonitrile] registered a melting point of 109 °C. At androgen receptor (AR), the “% Biological activity (C2C12 cell) 100 nM” value was 3% and the “% Biological activity (C2C12 cell) 5 μM” value is given as 19%.
